# Key:
# [1] = Solubilization of choline and sodium salts of FTS and other acidic drugs by cyclodextrins
# Procedure: The solid obtained thereby was heated on a boiling water bath.
# In this procedure, FTS (10 mg, 28 micromoles) was dissolved with warming in ethanol (20 microliters) and an aqueous solution of sodium hydroxide (30 microliters of 1 M NaOH carbonate free, i.e., 30 micromoles) was added. […] This clear solution then was added to the solution of Pitha methyl derivative (100 mg) in isotonic phosphate buffered saline (1 ml, pH 7.4).
# In these investigations, choline salts were prepared by extraction with organic solvents of mixtures of sodium salts of the anion in question and choline chloride. There mixtures were either solid or in aqueous solutions.
# [2] = Solubilization of additional guests by two different hosts; format: physicochemical; conditions: for solubility at 1 week: water containing solubilising hosts, aqueous with cosolvent or surfactant or cyclodextrin, thermodynamic from solid
# Excerpt: Techniques were as described in Example 1 and water was used as a solvent. As shown in Table for Example 4, complexes of two hosts increased the solubility of retinoic acid and taxol compared to the solubility obtained with individual hosts.
# [3] = physchem
# Excerpt: A slight excess of FTS was equilibrated with water containing one host at 5% concentration or two hosts, each at 5% concentration, by rotation for a week. The suspension was then filtered through a millipore filter and the concentration of FTS in filtrate determined by ultraviolet spectrophotometry. […] The cooperativity index reflects the improvement in solubility obtained with each combination of two hosts over the solubility obtained with each of the individual hosts involved in the two-host system. It is computed by dividing the obtained solubility with two hosts by the sum of the individual solubilities obtained with each component.
# [4] = Solubilization of FTS by TRIMEA and DIMEB: continuous variation and concentration dependence; format: physicochemical; conditions: water
# Excerpt: The optimum ratio of hosts was established by the continuous variation method, using techniques of Example 1 and water as a solvent. The results in Table A for Example 3 indicate that the optimum solubility is obtained when both hosts are in about equal concentrations. […]
# [5] = Solubilization of FTS by hosts in sodium carbonate based buffer of pH 10; format: physicochemical
# Procedure: (§1) no enhancement with two hosts. Water was used as the solvent for all data in the Table for Example 1. When a sodium carbonate based buffer of pH 10 was used as a solvent (conditions in which FTS is converted to its salt), the solubility of FTS in TRIMEA combined with DIMEB or in TRIMEA combined with Pitha methyl derivatives exceeds 60 mg per ml. Cooperativity, in this case, could not be calculated since, in these conditions, even solubilization by one component alone (DIMEB or Pitha methyl derivative) was over 60 mg per ml.
# [6] = Solubilization of FTS by TRIMEA and DIMEB: continuous variation and concentration dependence; format: physicochemical
# [7] = Solubilization of FTS by two different hosts in water (equilibration for a week, filtration, UV spectrophotometry); format: physicochemical; conditions: for solubility at 1 week: aqueous host solution, aqueous with cosolvent or surfactant or cyclodextrin, thermodynamic from solid
# Procedure: as §1
# [8] = host combination TRIMEA - DIMEB, water
# [9] = hosts Alpha Cyclodextrin - DIMEB, each 5% in water
# [10] = hosts Alpha Cyclodextrin - TRIMEB, each 5% in water
# [11] = hosts Beta Cyclodextrin - TRIMEB, each 5% in water
# [12] = hosts DIMEB - PERM HPBCD, each 5% in water
# [13] = hosts DIMEB - TRIMEB, each 5% in water
# [14] = hosts DIMEB - TRIMEG, each 5% in water
# [15] = hosts G2 - DIMEB, each 5% in water
# [16] = hosts G2 - TRIMEB, each 5% in water
# [17] = hosts G2 - TRIMEG, each 5% in water
# [18] = hosts HPACD - HPBCD, each 5% in water
# [19] = hosts Pitha Methyl 258 - TRIMEB, each 5% in water
# [20] = hosts Pitha Methyl 322 - DIMEB, each 5% in water
# [21] = hosts TRIMEA - DIMEB, each 5% in water
# [22] = hosts TRIMEA - G2, each 5% in water
# [23] = hosts TRIMEA - Pitha Methyl 258, each 5% in water
# [24] = host combination TRIMEA - Pitha Methyl 258, water
# [25] = host combination TRIMEA - RAMEB, water
# [26] = host combination TRIMEA - TRIMEB, water
# [27] = host combination DIMEB - TRIMEB (first line, r7), water
# [28] = host combination DIMEB - TRIMEB (printed a second time, r8), water
smiles,measurement,setting,value
CN1C(C(=O)Nc2ccccn2)=C(O)c2ccccc2S1(=O)=O [piroxicam],solubilization of choline salts,[1],easily solubilized
COc1ccc2c(c1)c(CC(=O)O)c(C)n2C(=O)c1ccc(Cl)cc1 [indomethacin],solubilization of choline salts,[1],easily solubilized
CC(=O)O[C@H]1C(=O)[C@@]2(C)[C@H]([C@H](OC(=O)c3ccccc3)[C@]3(O)C[C@H](OC(=O)[C@H](O)[C@@H](NC(=O)c4ccccc4)c4ccccc4)C(C)=C1C3(C)C)[C@]1(OC(C)=O)CO[C@@H]1C[C@@H]2O [Taxol],Cooperativity,[2]; [8],1.49
same,solubility at 1 week,[2]; [8],1000 µg/mL
same,Solubility,[3]; 1 week,380 µg/mL
same,solubility at 1 week,"[3]; aqueous with cosolvent or surfactant or cyclodextrin, thermodynamic from solid, Solubility",290 µg/mL
"CC(C)=CCCC(C)=CCCC(C)=CCSc1ccccc1C(=O)O [FTS, S-farnesylthiosalicylic acid]",FTS,"[4]; TRIMEA 0 % w/w, DIMEB 5 % w/w",1.55 mg/mL
same,FTS,"[4]; TRIMEA 1 % w/w, DIMEB 4 % w/w",2.29 mg/mL
same,FTS,"[4]; TRIMEA 2 % w/w, DIMEB 3 % w/w",2.66 mg/mL
same,FTS,"[4]; TRIMEA 3 % w/w, DIMEB 2 % w/w",2.79 mg/mL
same,FTS,"[4]; TRIMEA 4 % w/w, DIMEB 1 % w/w",2.33 mg/mL
same,FTS,"[4]; TRIMEA 5 % w/w, DIMEB 0 % w/w",0.19 mg/mL
same,"single, highly methylated cyclodextrin host outperformed the current standard",[3]; 1 week,over 2 times
same,solubility of FTS,"[5]; TRIMEA combined with DIMEB, sodium carbonate based buffer of pH 10 (FTS converted to its salt)",exceeds 60 mg per ml
same,solubility of FTS,"[5]; TRIMEA combined with Pitha methyl derivatives, sodium carbonate based buffer of pH 10",exceeds 60 mg per ml
same,solubilization of choline salts,[1],easily solubilized
same,FTS,"[6]; TRIMEA 2 % w/w, DIMEB 2 % w/w",2.13 mg/mL
same,FTS,"[6]; TRIMEA 5 % w/w, DIMEB 5 % w/w",8.53 mg/mL
same,FTS,"[6]; TRIMEA 10 % w/w, DIMEB 10 % w/w",15.86 mg/mL
same,FTS (mg/ml),"[6]; TRIMEA 15 % w/w, DIMEB 15 % w/w","(>than 17.17, all dissolved) mg/ml"
same,solubility at 1 week,[7]; [9],1400 µg/mL
same,solubility at 1 week,[7]; [10],100 µg/mL
same,solubility at 1 week,[7]; [11],26 µg/mL
same,solubility at 1 week,[7]; [12],1100 µg/mL
same,solubility at 1 week,[7]; [13],2600 µg/mL
same,solubility at 1 week,[7]; [14],1400 µg/mL
same,solubility at 1 week,[7]; [15],2400 µg/mL
same,solubility at 1 week,[7]; [16],1100 µg/mL
same,solubility at 1 week,[7]; [17],1000 µg/mL
same,solubility at 1 week,[7]; [18],52 µg/mL
same,solubility at 1 week,[7]; [19],950 µg/mL
same,solubility at 1 week,[7]; [20],1300 µg/mL
same,solubility at 1 week,[7]; [21],6600 µg/mL
same,solubility at 1 week,[7]; [22],3900 µg/mL
same,solubility at 1 week,[7]; [23],5700 µg/mL
same,Cooperativity (observed ÷ Σ components),[7]; [9],1.0
same,Cooperativity (observed ÷ Σ components),[7]; [10],0.6
same,Cooperativity (observed ÷ Σ components),[7]; [11],0.2
same,Cooperativity (observed ÷ Σ components),[7]; [12],0.8
same,Cooperativity (observed ÷ Σ components),[7]; [13],1.8
same,Cooperativity (observed ÷ Σ components),[7]; [14],1.0
same,Cooperativity (observed ÷ Σ components),[7]; [15],1.0
same,Cooperativity (observed ÷ Σ components),[7]; [16],1.0
same,Cooperativity (observed ÷ Σ components),[7]; [17],1.0
same,Cooperativity (observed ÷ Σ components),[7]; [18],0.3
same,Cooperativity (observed ÷ Σ components),[7]; [19],1.4
same,Cooperativity (observed ÷ Σ components),[7]; [20],0.7
same,Cooperativity (observed ÷ Σ components),[7]; [21],4.1
same,Cooperativity (observed ÷ Σ components),[7]; [22],3.0
same,Cooperativity (observed ÷ Σ components),[7]; [23],9.4
Cc1ccc(C(=O)Nc2ccc(S(=O)(=O)O)c3cc(S(=O)(=O)O)cc(S(=O)(=O)O)c23)cc1NC(=O)c1cccc(NC(=O)Nc2cccc(C(=O)Nc3cc(C(=O)Nc4ccc(S(=O)(=O)O)c5cc(S(=O)(=O)O)cc(S(=O)(=O)O)c45)ccc3C)c2)c1 [suramin],solubilization of choline salts,[1],easily solubilized
O=C(O)c1ccccc1O [salicylic acid],solubilization of choline salts,[1],easily solubilized
CC(C)Cc1ccc(C(C)C(=O)O)cc1 (stereo not shown) [ibuprofen],solubilization of choline salts,[1],easily solubilized
CC1=C(/C=C/C(C)=C/C=C/C(C)=C/C(=O)O)C(C)(C)CCC1 [Retinoic Acid],Cooperativity,[2]; [8],1.45
same,Cooperativity,[2]; [24],1.13
same,Cooperativity,[2]; [25],1.08
same,Cooperativity,[2]; [26],0.7
same,solubility at 1 week,[2]; [8],71 µg/mL
same,solubility at 1 week,[2]; [24],52 µg/mL
same,solubility at 1 week,[2]; [25],56 µg/mL
same,solubility at 1 week,[2]; [26],12 µg/mL
same,"single, highly methylated cyclodextrin host outperformed the current standard",[3]; 1 week,2.5 times
CC(C)=CCC/C(C)=C/CC/C(C)=C/CSc1ccccc1C(=O)[O-].C[N+](C)(C)CCO [choline salt of FTS],precipitate formation upon acidification,[1]; cyclodextrin-solubilized salts,less prone to form precipitate upon acidification than sodium salts
same,pH of solution,"[1]; powder of choline salt of FTS with methylated beta-cyclodextrin dissolved in water, paper strip indicator",6.5
same,dissolution of the powder in water,[1]; solid powder of choline salt of FTS with methylated beta-cyclodextrin,dissolved easily and fully in water
Nc1ccc(S(=O)(=O)Nc2ncccn2)cc1 [sulfadiazine],solubilization of choline salts,[1],easily solubilized
C[C@@H]1[C@H](O)[C@@H](C)/C=C/C=C/C=C/C=C/C=C/C=C/C=C/[C@H](O[C@@H]2O[C@H](C)[C@@H](O)[C@H](N)[C@@H]2O)C[C@@H]2O[C@](O)(C[C@@H](O)C[C@@H](O)[C@H](O)CC[C@@H](O)C[C@@H](O)CC(=O)O[C@H]1C)C[C@H](O)[C@H]2C(=O)O [Amphotericin B],Cooperativity,[2]; [27],0.7
same,Solubility,[2]; [27],131 µg/mL
same,Cooperativity,[2]; [28],0.9
same,Solubility,[2]; [28],158 µg/mL
same,Cooperativity,[2]; [8],0.9
same,Solubility,[2]; [8],185 µg/mL
same,solubilization of choline salts,[1],easily solubilized

# — patent US6576261B1, “Potentiation of inclusion complex formation of cyclodextrin derivatives” (priority 1999, dated 2003)
